Reference: US20220411750A1, “CELL STRUCTURE, PRODUCTION METHOD THEREOF, AND METHOD FOR EVALUATING HEPATOTOXICITY OF SUBSTANCE TO BE TESTED” (TOPPAN INC., priority 2019, published 2022)
Read-outs that look alike come from different tables or passages of the source.

Key:
[1] = tested on: liver sinusoidal network of liver model (PXB cells, SEC, LX2); assay: Monocrotaline administration experiment, CD31 immunostaining of liver model; format: cell-based, human; details: monocrotaline 2,000, 666, 222 or 74 μM on Day 1 and Day 4; observed Day 7; 1% DMSO
Experimental: 1 day (Day 1) and 4 days (Day 4) after the start of the culture of the liver model, administration was performed on the liver model by replacing the medium with a medium containing monocrotaline at a concentration of 2,000 μM, 666 μM, 222 μM, or 74 μM. Here, the compound used was dissolved in advance in DMSO at a high concentration and stored, and during administration, DMSO was contained at a concentration of 1% in the medium. Since 1% DMSO was contained in each administration condition, replacement of the medium with a medium containing only 1% DMSO was performed at the same time, and the result was used as a negative control.
For the samples on which administration was performed, a fixing treatment, a permeation treatment, blocking, a primary antibody treatment, a secondary antibody treatment, imaging and area calculation and evaluation were performed in that order. Hereinafter, the procedure from the fixing treatment to evaluation will be described. […]
The intensities of the images captured by the above method were added up to obtain a fluorescence observation image of each liver model.

[2] = cited from earlier work; for Toxicity: Yes/No, Yes for No. 1-14, No for No. 15-18
[3] = tested on: cell structure having a liver sinusoidal network produced using CMF (Example A); assay: Toxicity evaluation by ATP assay, cell structure of Example A (produced using CMF); details: for IC50: Homo sapiens, read-out: IC50 Example A; for IC50 Example A: ATP assay, drug medium from day 7, replaced day 10, assay after 14 days; for IC50 Example A / MOS value [IC50/Cmax] Example A: cell structure produced using CMF, "Outside" = Outside measurement range; for MOS value [IC50/Cmax] Example A: ATP assay IC50 divided by Cmax
Experimental: (§1) 100 mg of a type I collagen sponge fragment derived from pig skin (commercially available from NH Foods Ltd.) was heated at 200° C. for 24 hours, and thus a collagen component of which at least a part was cross-linked (cross-linked collagen component) was obtained. […] 50 mg of the cross-linked collagen component was put into a 15 mL tube, 5 mL of ultrapure water was added thereto, and the mixture was homogenized using a homogenizer (VH-10 commercially available from As One Corporation) for 6 minutes.
(§2) An aqueous solution containing the homogenized cross-linked collagen component was centrifuged at 10,000 rpm for 10 minutes under conditions of 21° C. The supernatant was suctioned, and collagen pellets were mixed with 5 mL of fresh ultrapure water to prepare a collagen solution. While the tube containing the collagen solution was kept on ice, an ultrasonic treatment was performed using a sonicator (VC50 commercially available from Sonics and Materials) at 100 V for 20 seconds, the sonicator was removed, and the tube containing the collagen solution was then cooled on ice for 10 seconds, which was repeated 100 times. After the ultrasonic treatment was performed 100 times, the collagen solution was filtered with a filter having a pore size of 40 μm to obtain a dispersion solution containing a defibrated collagen component (sCMF). The dispersion solution was freeze-dried by a conventional method to obtain a defibrated collagen component (sCMF) as a dried product.
(§3) A dispersion solution A in which the defibrated collagen component was dispersed in a medium (DMEM) containing serum in which 10 mg/mL of fibrinogen (commercially available from Sigma) was dissolved so that the concentration was 30 mg/mL was obtained. In addition, a dispersion solution B in which cells were dispersed in a medium (DMEM) containing serum in which 10 U/mL of thrombin (commercially available from Sigma) was dissolved so that the total number of cells per well was 30,000 cells. 10 μL of a suspension in which the obtained dispersion solution A (defibrated collagen component) and dispersion solution B were mixed at 1:1 was added to each well of a 48-well plate.
(§4) Regarding the medium, a mixed medium (mass ratio: 1:1) containing a medium for vascular endothelia 1 (ECM) and a medium for mesenchymal stem cell proliferation (MSCGM2), a medium for vascular endothelia 1 (ECM), or a medium for vascular endothelia 1 (ECM) and a medium for hepatocytes (d-HCGM) were used.
(§5) 10 days after the start of the culture, again, the medium was replaced with a medium in which the drug was dissolved, and after 14 days, the cell activity was quantified by ATP assay.
(§6) The toxicity was evaluated with IC50 and MOS value. The MOS value is an index used for toxicity evaluation as a value considering the maximum drug concentration (Cmax).

[4] = maximum drug concentration used for MOS value; cited from earlier work
[5] = tested on: cell structure having a liver sinusoidal network produced using heparin and a collagen solution (Example B); assay: Toxicity evaluation by ATP assay, cell structure of Example B (produced using heparin and a collagen solution); details: for IC50: Homo sapiens, read-out: IC50 Example B; for IC50 Example B: ATP assay, cell structure produced using heparin and collagen solution
Experimental: as §5
(§7) PXB cells, SEC and LX2 were mixed so that the following proportions and cell amount were obtained, and thereby a cell mixture was obtained. • Total amount of cells per well: 30,000 cells • Cell proportions in tissue:
(§8) The same amounts of 1.0 mg/mL heparin solution (buffer: 100 mM Tris-HCL) and 0.3 mg/mL collagen solution (buffer: 5 mM acetate) were mixed to obtain a heparin/collagen solution.
(§9) 100 μL of the heparin/collagen solution was added to the cell mixture and suspended until the cells were visible, and then centrifuged (400 g×2 min), and a viscous component was formed in the solution.
(§10) After the supernatant was removed from the solution containing the viscous component, a 20 U/mL thrombin solution (solvent: HCM (culture medium for hepatocytes)) was added so that the final volume of the solution was “the number of wells to be seeded”×2 μL volume of the solution, and thereby a cell suspension was obtained.
(§11) 10 mg/mL of a fibrinogen solution was put into a 48 plate, and droplets were formed. The cell suspension was added into the droplets, and then left in the incubator for 40 minutes, and a fibrin gel was formed.
(§12) 0.5 mL of HCM (containing endothelial cell growth supplement) was added to each well in which the fibrin gel was formed, and a liver model was obtained as a cell structure.
as §6

[6] = tested on: 3D human liver microtissues (3D hLiMT); details: literature data, "Outside" = Outside measurement range; cited from earlier work
[7] = tested on: two-dimensional primary human hepatocytes (2D PHH); details: literature data, "Outside" = Outside measurement range; cited from earlier work
[8] = tested on: cell structure having a liver sinusoidal network produced using CMF (Example A); details: human
Experimental: as §1, §2, §3, §4, §5, §6

[9] = tested on: cell structure having a liver sinusoidal network produced using heparin and a collagen solution (Example B); details: human
Experimental: as §5, §7, §8, §9, §10, §11, §12, §6

[10] = "Outside" = Outside measurement range

With `C[C@H]1C(=O)O[C@@H]2CCN3CC=C(COC(=O)[C@](C)(O)[C@]1(C)O)[C@H]23` [monocrotaline] the “Fragmentation of liver sinusoidal network (CD31 immunostaining)” value [1] was “liver sinusoidal network became fragmented as the monocrotaline concentration increased”.
In the case of `O=P1(N(CCCl)CCCl)NCCCO1` (stereo not drawn) [Cyclophosphamide], the Toxicity [2] is given as “Yes”, the IC50 [3] is given as 1670 µM and the Cmax [4] is given as 143 µM. The IC50 [5] was 1360 µM, the “MOS value [IC50/Cmax] Reference Example B” value [6] was “Outside” and the “MOS value [IC50/Cmax] Reference Example A” value [7] was “Outside”.
In the case of `Cc1onc(-c2c(F)cccc2Cl)c1C(=O)N[C@@H]1C(=O)N2[C@@H]1SC(C)(C)[C@@H]2C(=O)O` [Flucloxacillin], the Toxicity [2] is listed as “Yes”, the IC50 [3] is listed as 1390 µM and the Cmax [4] is listed as 66.1 µM. The IC50 [5] was 5800 µM.
In the case of `O=C(O)Cc1ccccc1Nc1c(Cl)cccc1Cl` [Diclofenac], the IC50 [3] is given as 64.1 µM, the Cmax [4] is given as 10.1 µM and the IC50 [5] is given as 232 µM.
In the case of `Cc1ccc(N(CC2=NCCN2)c2cccc(O)c2)cc1` [Phentolamine], the Toxicity [2] is given as “No”, the IC50 [3] is given as 180 µM and the Cmax [4] is given as 0.09 µM. It also gave an IC50 [5] of 66 µM.
For `CCOC(=O)CN[C@@H](C(=O)N1CC[C@H]1C(=O)NCc1ccc(/C(N)=N\O)cc1)C1CCCCC1` [Ximelagatran], the Toxicity [2] is listed as “Yes” and the Cmax [4] is listed as 0.45 µM.
For `CN(C)C(=O)Oc1ccc[n+](C)c1` [Pyridostigmine], the Toxicity [2] is given as “No”, the “IC50 Example A” value [3] is given as “Outside” and the Cmax [4] is given as 1.1 µM. The “IC50 Example B” value [5, 10] was “Outside”.
In the case of `Cc1c(C)c2c(c(C)c1O)CCC(C)(COc1ccc(CC3SC(=O)NC3=O)cc1)O2` (stereo not drawn) [Troglitazone], the Toxicity [2] is listed as “Yes”, the IC50 [3] is listed as 17.1 µM and the IC50 [5] is listed as 50.2 µM.
For `Cc1ccc(C(=O)c2cc(O)c(O)c([N+](=O)[O-])c2)cc1` [Tolcapone], the Toxicity [2] is given as “Yes”, the IC50 [3] is given as 32.4 µM and the Cmax [4] is given as 47.6 µM. The IC50 [5] was 88.7 µM.
In the case of `C[C@H]1COc2c(N3CCN(C)CC3)c(F)cc3c(=O)c(C(=O)O)cn1c23` [Levofloxacin], the Toxicity [2] is listed as “Yes”, the “MOS value [IC50/Cmax] Example A” value [3] is listed as “Outside” and the Cmax [4] is listed as 15.8 µM. For the same molecule, the IC50 [5] was 960 µM, the “MOS value [IC50/Cmax] Reference Example B” value [6] was “Outside” and the “MOS value [IC50/Cmax] Reference Example A” value [7] was “Outside”.
In the case of `C1CCC(C(CC2CCCCN2)C2CCCCC2)CC1` (stereo not drawn) [Perhexiline], the Toxicity [2] is given as “Yes”, the IC50 [3] is given as 5.4 µM and the “MOS value [IC50/Cmax] Example A” value [8] is given as 2.5. For the same molecule, the IC50 [5] was 3.2 µM and the “MOS value [IC50/Cmax] Example B” value [9] was 1.5.
For `CN(CCOc1ccc(CC2SC(=O)NC2=O)cc1)c1ccccn1` (stereo not drawn) [Rosiglitazone], the Toxicity [2] is listed as “Yes”, the IC50 [3] is listed as 46.5 µM and the Cmax [4] is listed as 1.04 µM. The IC50 [5] was 79.1 µM and the “MOS value [IC50/Cmax] Reference Example A” value [7] was “Outside”.
For `CC(=O)Nc1ccc(O)cc1` [Acetaminophen], the Toxicity [2] is given as “Yes”, the IC50 [3] is given as 761 µM and the Cmax [4] is given as 165 µM. The IC50 [5] was 868 µM.
For `CCOC(=O)c1ncn2c1CN(C)C(=O)c1cc(F)ccc1-2` [Flumazenil], the Toxicity [2] is given as “No”, the “DILI severity category (LKBT)” value ([2]; drug-induced liver injury severity category) is given as “I” and the “MOS value [IC50/Cmax] Example A” value [3] is given as “Outside”. For the same molecule, the “IC50 Example A” value [3] was “Outside”, the Cmax [4] was 1.12 µM and the “MOS value [IC50/Cmax] Example B” value ([5]; ATP assay IC50 divided by Cmax, cell structure produced using heparin and collagen, "Outside" = Outside measurement range) was “Outside”. The “IC50 Example B” value [5, 10] was “Outside”, the “MOS value [IC50/Cmax] Reference Example B” value [6] was “Outside” and the “MOS value [IC50/Cmax] Reference Example A” value [7] was “Outside”.
In the case of `CCc1nn(CCCN2CCN(c3cccc(Cl)c3)CC2)c(=O)n1CCOc1ccccc1` [Nefazodone], the Toxicity [2] is given as “Yes”, the IC50 [3] is given as 22.1 µM and the Cmax [4] is given as 4.26 µM. The IC50 [5] was 32.4 µM.
In the case of `Nc1cc(N2CCCCC2)nc(N)[n+]1[O-]` [Minoxidil0], the “IC50 Example A” value [3] is given as “Outside”, the Cmax [4] is given as 1.19 µM and the “IC50 Example B” value [5, 10] is given as “Outside”.
For `COc1ccccc1Oc1c(NS(=O)(=O)c2ccc(C(C)(C)C)cc2)nc(-c2ncccn2)nc1OCCO` [Bosentan], the Toxicity [2] is given as “Yes”, the IC50 [3] is given as 67.1 µM and the Cmax [4] is given as 7.43 µM. The IC50 [5] was 209 µM and the “MOS value [IC50/Cmax] Reference Example A” value [7] was “Outside”.
